In paper PMC8217813, “Bridging Computational Vaccinology and Vaccine Development Through Systematic Identification, Characterization, and Downselection of Conserved and Variable Circumsporozoite Protein CD4 T Cell Epitopes From Diverse Plasmodium falciparum Strains” (Frontiers in Immunology, 2021):
Peptide text beside a SMILES is read from it.

How the values were obtained:
HLA-DRB1*0401 = target: T1, HLA-DRB1*0401 (Homo sapiens, UniProt P01903+P01911, A100K/A169T/F76Y/I96L/K127E/L162R/M171V/N62H/P40V/Q125Y/R42H/S133A/S149N/S66Y/V115G/V209L/W38E); assay: In vitro class II HLA binding competition assay
T1 construct: purchased
Summary of the method: (§1)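 First, limiting class II HLA monomers were incubated for 24 h with a fluorescent-labeled reference peptide and DMSO-dissolved test peptide at final concentrations of 100,000 nM to 100 nM. Next, HLA-peptide complexes were captured with anti-HLA-DR antibody. Finally, bound reference was quantified by europium time-resolved fluorescence and IC50 calculated.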

HLA-DRB1*0801 = HLA-DRB1*0801 (Homo sapiens, UniProt P01903+P01911, A100R/A103L/A169T/D86S/F76Y/H45Y/I96F/K41T/L162R/M171V/P40S/Q125H/Q178H/Q39Y/Q99D/R218S/R42G/S66Y/V115G/W38E); assay: In vitro class II HLA binding competition assay; settings: competition with fluorescent-labeled reference peptide, class II HLA monomers, 24-hours, test peptide 100,000 nM to 100 nM, time-resolved fluorescence
Summary of the method: as §1

HLA-DRB1*1101 = target: T2, HLA-DRB1*1101 (Homo sapiens, UniProt P01903+P01911, A100R/A169T/A87E/I96F/K41T/L162R/M171V/P40S/Q125H/Q178H/Q39Y/Q99D/R42S/S66Y/T262R/V115G/W38E); assay: In vitro class II HLA binding competition assay; settings: competition with fluorescent-labeled reference peptide, class II HLA monomers, 24-hours, test peptide 100,000 nM to 100 nM, time-resolved fluorescence
T2 construct: purchased
Summary of the method: as §1

HLA-DRB1*0701 = HLA-DRB1*0701 (Homo sapiens, UniProt P01903+P01911, A100R/A102G/A103Q/D57E/D86V/E43K/F76Y/K127E/L162R/M171V/P40G/Q125H/Q99D/R33Q/R42Y/R54Q/S133A/S66F/T210M/V115G/Y107V/Y59L/Y89S); assay: In vitro class II HLA binding competition assay
Summary of the method: as §1

HLA-DRB1*0101 = target: T3, HLA-DRB1*0101 (Homo sapiens, UniProt P01903+P01911, A100R/D57E/F55L/F60I/F76Y/I96L/L162R/M171V/P40L/Q125E/R42F/V115G/Y59C); assay: In vitro class II HLA binding competition assay; settings: competition with fluorescent-labeled reference peptide, class II HLA monomers, 24-hours, test peptide 100,000 nM to 100 nM, time-resolved fluorescence
T3 construct: purchased
Summary of the method: as §1

HLA-DRB1*1501 = target: T4, HLA-DRB1*1501 (Homo sapiens, UniProt P01903+P01911); assay: In vitro class II HLA binding competition assay
T4 construct: purchased
Summary of the method: as §1

HLA-DRB1*0301 = HLA-DRB1*0301 (Homo sapiens, UniProt P01903+P01911, A100K/A102G/A103R/A169T/F55Y/I96L/K41T/L162R/M171V/P40S/Q125H/Q178H/Q39Y/R42S/S66N/T106N/T262R/W38E/Y61H); assay: In vitro class II HLA binding competition assay; settings: competition with fluorescent-labeled reference peptide, class II HLA monomers, 24-hours, test peptide 100,000 nM to 100 nM, time-resolved fluorescence
Summary of the method: as §1

HLA-DRB1*1301 = HLA-DRB1*1301 (Homo sapiens, UniProt P01903+P01911, A100E/A169T/K41T/L162R/M171V/P40S/Q125H/Q178H/Q39Y/Q99D/R42S/S66N/T262R/W38E/Y61H); assay: In vitro class II HLA binding competition assay; settings: competition with fluorescent-labeled reference peptide, class II HLA monomers, 24-hours, test peptide 100,000 nM to 100 nM, time-resolved fluorescence
Summary of the method: as §1

[1] = system: CD4 T cells co-cultured with autologous DCs from PBMCs; format: cell-based, human; settings: positive = Stimulation Index ≥1.5-fold above baseline, 5 µg/mL peptide

SMILES: CC[C@H](C)[C@H](NC(=O)[C@H](Cc1c[nH]cn1)NC(=O)[C@H](CCC(N)=O)NC(=O)[C@H](CC(=O)O)NC(C)=O)C(=O)N[C@@H](CCC(=O)O)C(=O)N[C@@H](CCCCN)C(=O)N[C@@H](Cc1ccc(O)cc1)C(=O)N[C@@H](CC(C)C)C(=O)N[C@@H](CCCCN)C(=O)N[C@H](C(=O)N[C@H](C(=O)N[C@@H](CCC(N)=O)C(=O)N[C@@H](CC(N)=O)C(=O)N[C@@H](CO)C(=O)N[C@@H](CC(C)C)C(=O)N[C@@H](CO)C(=O)N[C@H](C(=O)N[C@@H](CCC(=O)O)C(=O)N[C@@H](Cc1c[nH]c2ccccc12)C(=O)N[C@@H](CO)C(=O)N1CCC[C@H]1C(N)=O)[C@@H](C)O)[C@@H](C)CC)[C@@H](C)CC [ICS5] (Ac-DQHIEKYLKIIQNSLSTEWSP-NH2)
- IC50 (HLA-DRB1*0401): 35 nM
- IC50 (HLA-DRB1*0801): 23.1 µM
- IC50 (HLA-DRB1*1101): 5.55 µM
- IC50 (HLA-DRB1*0701): 3.68 µM
- IC50 (HLA-DRB1*0101): 218 nM
- IC50 (HLA-DRB1*1501): 30 nM
- IC50 (HLA-DRB1*0301): 84.7 µM
- IC50 (HLA-DRB1*1301): 19.8 µM
- Percentage of donors demonstrating IFN-γ responses, DR1 ([1]; DR1 donors N=5, ICCS after 14-day co-culture): 80%
- Percentage of donors demonstrating IL-2 responses, DR1 ([1]; DR1 donors N=5, ICCS): 20%
- Percentage of donors demonstrating IL-4 responses, DR1 ([1]; DR1 donors N=5, ICCS): 0%
- Percentage of donors demonstrating IL-10 responses, DR1 ([1]; DR1 donors N=5, ICCS): 0%
- Percentage of donors demonstrating TNF-α responses, DR1 ([1]; DR1 donors N=5, ICCS): 40%
- Percentage of donors demonstrating IFN-γ responses, DR3 ([1]; DR3 donors N=6, ICCS after 14-day co-culture): 33%
- Percentage of donors demonstrating IL-2 responses, DR3 ([1]; DR3 donors N=6, ICCS): 0%
- Percentage of donors demonstrating IL-4 responses, DR3 ([1]; DR3 donors N=6, ICCS): 33%
- Percentage of donors demonstrating IL-10 responses, DR3 ([1]; DR3 donors N=6, ICCS): 17%
- Percentage of donors demonstrating TNF-α responses, DR3 ([1]; DR3 donors N=6, ICCS): 17%
- Percentage of donors demonstrating IFN-γ responses, DR4 ([1]; DR4 donors N=10, ICCS after 14-day co-culture): 60%
- Percentage of donors demonstrating IL-2 responses, DR4 ([1]; DR4 donors N=10, ICCS): 40%
- Percentage of donors demonstrating IL-4 responses, DR4 ([1]; DR4 donors N=10, ICCS): 0%
- Percentage of donors demonstrating IL-10 responses, DR4 ([1]; DR4 donors N=10, ICCS): 0%
- Percentage of donors demonstrating TNF-α responses, DR4 ([1]; DR4 donors N=10, ICCS): 40%
- Percentage of donors demonstrating IFN-γ responses, DR7 ([1]; DR7 donors N=4, ICCS after 14-day co-culture): 75%
- Percentage of donors demonstrating IL-2 responses, DR7 ([1]; DR7 donors N=4, ICCS): 25%
- Percentage of donors demonstrating IL-4 responses, DR7 ([1]; DR7 donors N=4, ICCS): 25%
- Percentage of donors demonstrating IL-10 responses, DR7 ([1]; DR7 donors N=4, ICCS): 0%
- Percentage of donors demonstrating TNF-α responses, DR7 ([1]; DR7 donors N=4, ICCS): 0%
- Percentage of donors demonstrating IFN-γ responses, DR8 ([1]; DR8 donors N=4, ICCS after 14-day co-culture): 25%
- Percentage of donors demonstrating IL-2 responses, DR8 ([1]; DR8 donors N=4, ICCS): 0%
- Percentage of donors demonstrating IL-4 responses, DR8 ([1]; DR8 donors N=4, ICCS): 0%
- Percentage of donors demonstrating IL-10 responses, DR8 ([1]; DR8 donors N=4, ICCS): 0%
- Percentage of donors demonstrating TNF-α responses, DR8 ([1]; DR8 donors N=4, ICCS): 75%
- Percentage of donors demonstrating IFN-γ responses, DR9 ([1]; DR9 donors N=4, ICCS after 14-day co-culture): 50%
- Percentage of donors demonstrating IL-2 responses, DR9 ([1]; DR9 donors N=4, ICCS): 25%
- Percentage of donors demonstrating IL-4 responses, DR9 ([1]; DR9 donors N=4, ICCS): 0%
- Percentage of donors demonstrating IL-10 responses, DR9 ([1]; DR9 donors N=4, ICCS): 25%
- Percentage of donors demonstrating TNF-α responses, DR9 ([1]; DR9 donors N=4, ICCS): 50%
- Percentage of donors demonstrating IFN-γ responses, DR11 ([1]; DR11 donors N=4, ICCS after 14-day co-culture): 100%
- Percentage of donors demonstrating IL-2 responses, DR11 ([1]; DR11 donors N=4, ICCS): 50%
- Percentage of donors demonstrating IL-4 responses, DR11 ([1]; DR11 donors N=4, ICCS): 0%
- Percentage of donors demonstrating IL-10 responses, DR11 ([1]; DR11 donors N=4, ICCS): 0%
- Percentage of donors demonstrating TNF-α responses, DR11 ([1]; DR11 donors N=4, ICCS): 75%
- Percentage of donors demonstrating IFN-γ responses, DR13 ([1]; DR13 donors N=7, ICCS after 14-day co-culture): 43%
- Percentage of donors demonstrating IL-2 responses, DR13 ([1]; DR13 donors N=7, ICCS): 14%
- Percentage of donors demonstrating IL-4 responses, DR13 ([1]; DR13 donors N=7, ICCS): 14%
- Percentage of donors demonstrating IL-10 responses, DR13 ([1]; DR13 donors N=7, ICCS): 0%
- Percentage of donors demonstrating TNF-α responses, DR13 ([1]; DR13 donors N=7, ICCS): 43%
- Percentage of donors demonstrating IFN-γ responses, DR15 ([1]; DR15 donors N=7, ICCS after 14-day co-culture): 43%
- Percentage of donors demonstrating IL-2 responses, DR15 ([1]; DR15 donors N=7, ICCS): 0%
- Percentage of donors demonstrating IL-4 responses, DR15 ([1]; DR15 donors N=7, ICCS): 0%
- Percentage of donors demonstrating IL-10 responses, DR15 ([1]; DR15 donors N=7, ICCS): 14%
- Percentage of donors demonstrating TNF-α responses, DR15 ([1]; DR15 donors N=7, ICCS): 29%
